How the values were obtained:
[1] = biological target: T1, Sodium-dependent dopamine transporter (Rattus norvegicus, UniProt P23977); experiment: ability to displace [3H]- Mazindol binding to cocaine binding sites on Dopamine transporter of rat striatal membranes; set-up: species or system Striatum, Membrane
[2] = biological target: Norepinephrine transporter (Rattus norvegicus, UniProt Q9WTR4); experiment: Compound was tested for its ability to inhibit high-affinity uptake of [3H]NE into parietal and occipital cortex in rat
[3] = biological target: T1, Sodium-dependent dopamine transporter; experiment: Compound was tested for its ability to inhibit high affinity uptake of [3H]DA into rat striatal membrane; set-up: species or system Striatum
[4] = biological target: Sodium-dependent serotonin transporter (Rattus norvegicus, UniProt P31652); experiment: Compound was tested for its ability to inhibit high affinity uptake of [3H]5-HT into mid brain nerve endings (synaptosomes) in rat; assay type: subcellular
[5] = system: Rattus norvegicus; experiment: Percent reduction in cocaine induced reward enhancement after administration of compound at 5 mg/kg or 10 mg/kg combined with 10 mg/kg of cocaine intraperitoneally in rats; assay type: functional
[6] = biological target: T1, Sodium-dependent dopamine transporter; experiment: Binding affinity to a single, sodium-dependent site on the Dopamine transporter in rat striatal membranes; assay type: cell membranes, Striatum, Membrane

Sodium-dependent serotonin transporter, sequence (P31652 whole entry): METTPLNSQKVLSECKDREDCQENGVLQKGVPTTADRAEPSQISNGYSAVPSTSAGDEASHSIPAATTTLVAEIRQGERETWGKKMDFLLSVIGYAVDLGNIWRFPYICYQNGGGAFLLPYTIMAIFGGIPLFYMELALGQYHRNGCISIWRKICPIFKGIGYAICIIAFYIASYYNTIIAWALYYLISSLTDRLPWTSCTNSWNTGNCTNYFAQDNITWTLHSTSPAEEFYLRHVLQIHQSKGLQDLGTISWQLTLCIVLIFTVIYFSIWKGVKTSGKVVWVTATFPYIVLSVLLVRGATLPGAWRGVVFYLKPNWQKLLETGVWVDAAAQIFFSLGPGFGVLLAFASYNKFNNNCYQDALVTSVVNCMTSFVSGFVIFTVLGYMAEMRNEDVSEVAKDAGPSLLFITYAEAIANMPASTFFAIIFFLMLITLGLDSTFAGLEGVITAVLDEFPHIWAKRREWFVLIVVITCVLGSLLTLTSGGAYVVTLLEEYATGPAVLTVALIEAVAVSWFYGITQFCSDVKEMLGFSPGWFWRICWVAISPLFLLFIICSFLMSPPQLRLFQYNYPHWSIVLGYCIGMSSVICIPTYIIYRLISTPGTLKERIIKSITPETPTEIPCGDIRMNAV
Norepinephrine transporter, sequence (Q9WTR4 whole entry): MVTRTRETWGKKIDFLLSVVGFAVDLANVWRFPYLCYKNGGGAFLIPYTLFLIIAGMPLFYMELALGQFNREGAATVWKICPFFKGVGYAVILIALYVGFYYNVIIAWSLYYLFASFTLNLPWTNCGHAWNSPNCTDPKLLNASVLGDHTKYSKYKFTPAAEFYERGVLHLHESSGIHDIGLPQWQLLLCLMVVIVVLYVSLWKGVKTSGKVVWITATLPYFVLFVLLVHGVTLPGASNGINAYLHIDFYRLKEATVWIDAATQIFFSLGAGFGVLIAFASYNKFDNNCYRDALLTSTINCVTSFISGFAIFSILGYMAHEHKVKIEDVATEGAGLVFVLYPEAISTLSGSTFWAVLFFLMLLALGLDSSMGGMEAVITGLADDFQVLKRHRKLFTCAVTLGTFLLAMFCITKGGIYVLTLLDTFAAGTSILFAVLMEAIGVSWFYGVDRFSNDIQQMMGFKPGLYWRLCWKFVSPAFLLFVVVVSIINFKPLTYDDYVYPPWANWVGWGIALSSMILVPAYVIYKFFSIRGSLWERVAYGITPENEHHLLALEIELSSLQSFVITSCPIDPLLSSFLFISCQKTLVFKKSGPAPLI
T1 sequence (P23977 whole entry): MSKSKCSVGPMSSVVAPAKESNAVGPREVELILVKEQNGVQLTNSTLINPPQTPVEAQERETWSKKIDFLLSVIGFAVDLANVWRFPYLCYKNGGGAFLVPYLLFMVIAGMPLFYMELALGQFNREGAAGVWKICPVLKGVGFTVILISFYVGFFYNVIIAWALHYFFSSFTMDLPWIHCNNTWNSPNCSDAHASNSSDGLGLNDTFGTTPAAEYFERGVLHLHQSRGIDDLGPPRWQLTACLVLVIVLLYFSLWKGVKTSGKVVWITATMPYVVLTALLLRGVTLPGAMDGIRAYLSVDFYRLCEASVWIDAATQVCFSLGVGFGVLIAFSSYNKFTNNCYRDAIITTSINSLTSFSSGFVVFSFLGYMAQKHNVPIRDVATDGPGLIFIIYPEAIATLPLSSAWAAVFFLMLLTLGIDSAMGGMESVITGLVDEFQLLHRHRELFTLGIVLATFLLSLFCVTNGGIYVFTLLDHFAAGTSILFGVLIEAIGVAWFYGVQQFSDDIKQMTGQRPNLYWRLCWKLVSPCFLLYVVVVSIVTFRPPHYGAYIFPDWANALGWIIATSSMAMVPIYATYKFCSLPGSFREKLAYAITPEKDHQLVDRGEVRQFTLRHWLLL

SMILES: CCCC1C(c2ccc(F)cc2)CC2CC(F)(F)C1N2C (stereo not drawn)
- Ki [1]: 860 nM
- Ki [2]: 3790 nM
- Ki [3]: 1450 nM
- Ki [4]: 7910 nM

SMILES: CCCC1C(c2ccc(F)cc2)CC2C[C@H](F)C1N2C (stereo partly drawn)
- Reduction [5]: 60%
- Ki [2]: 52 nM
- Ki [3]: 49 nM
- Ki [4]: 561 nM

SMILES: CCCC1C(c2ccc(F)cc2)CC2C[C@@H](F)C1N2C (stereo partly drawn)
- Ki [1]: 1150 nM
- Ki [2]: 126 nM
- Ki [3]: 304 nM
- Ki [4]: 1250 nM

SMILES: OC1(c2ccc(Cl)cc2)c2ccccc2C2=NCCN21 (stereo not drawn) [MAZINDOL]
- Kd [6]: 8.63 nM

From ChEMBL document CHEMBL1133212, “An enantioselective synthesis and biobehavioral evaluation of 7-fluoro-3-(p-fluorophenyl)-2-propyltropanes” (Bioorg Med Chem Lett, 2000)
